{"source": "patent US20250237648A1", "about": "“BACTERIAL BIOSENSORS FOR DIAGNOSING AND TREATING INFLAMMATION” (Baylor College of Medicine, priority 2022, published 2025)", "assay_type_in_all_cases": "cell-based, Escherichia coli Nissle 1917", "key": {"[1]": {"tested_on": "Pykg, Pent and Pabt promoter constructs", "experiment": "TPEN induction of promoter-sfgfp constructs (fluorescence)", "conditions": "M9 minimal medium", "method": "Selection of the ykgMO promoter to sense calprotectin levels. To assess the ykg, ent, and abt promoters as potential sensors of the metal sequestration activity of calprotectin, Pykg, Pent, and Paht were cloned into plasmid pColE1 driving the expression of superfolder GFP (sfgfp). Sensor fluorescence was next analyzed in M9 minimal medium and used metal chelator TPEN to mimic the metal depletion of calprotectin.\nEcN biosensor constructs were grown to early log phase (˜0.1 OD600) in M9 media with glucose, and were back diluted to 0.01 OD600 and then grown for ˜4 hours aerobically, until OD600 reached ˜0.15. At this point, cells were kept on ice until analysis on a Becton Dickinson FACScan flow cytometer. Flow cytometry runs were performed in 96 well plates. Briefly, 10-40 μL of cells were added to 1 mL of PBS sheath fluid and run through the flow cytometer for a total of 10000 events. Cells were thresholded on forward/side scatter, and .fsc files were analyzed with the FlowCal software. In short, FlowCal identifies the densest region of cells on the associated scatterplot, and analyzes the fluorescent output of 30% of the cells in this region so as to evaluate a homogenous dataset and remove possible outliers. […] In this case, sfGFP output is reported as molecules of equivalent fluorophores (MEF), and was evaluated on the FL1 channel. […]"}, "[2]": {"tested_on": "ykgMO, ent and abt genes", "experiment": "RT-qPCR verification of calprotectin-responsive genes with TPEN", "conditions": "30 μM TPEN, LB media, 30 minutes", "excerpt": "FIGS. 1A-1K. Selection of the ykgMO promoter to sense calprotectin levels and sensitivity of ygkMO, ent and abt biosensors to metal starvation. 1A: Sensitivity of ykgMO (50S Ribosomal Protein L36/L31 type B) promoter (Pykg) biosensor to calprotectin; 1B-ID: Sensitivity of ent (1B), abt (1C), and ykg (1D) promoter constructs to TPEN in M9 media detected by Flow Cytometer; 1E: Minimum inhibitory concentration (MIC) of calprotectin on E. coli Nissile1917 (referred to EcN) in LB media; IF: Upregulation of calprotectin responsive promoters with TPEN induction in LB media verified by RT-qPCR; 1G: Sensitivity of ent promoter construct to TPEN in M9 media detected by plate reader; 1H: Sensitivity of abt promoter construct to TPEN in M9 media detected by plate reader; 1I: Sensitivity of ykg promoter construct to TPEN in M9 media detected by plate reader; 1J: Upregulation of calprotectin responsive ykgMO) promoter with TPEN induction in M9 media verified by RT-qPCR; 1K: Quenching of different ions on Pykg biosensor (EcN/pBSI0). Equimolar (1.5 μM) or 10×-excess (15 μM) of Zn^2+, Mn^2+, and Fe^2+ were added to Pykg biosensor co-cultured with 40 μg/mL calprotectin in M9 media. 1.5 μM (equivalent metal binding capacity of 40 μg/mL calprotectin), 3 μM, or 30 μM co-cultured with E. coli Nissle 1917 biosensors in pure culture. Calprotectin only-N=9. […]"}, "[3]": {"tested_on": "Pykg biosensor (EcN/pBSI0)", "quoted_text": "To validate that the Pykg is sensitive to zinc but not other metals bound by calprotectin, BSI0 was incubated with 40 μg/mL of calprotectin with or without supplementation of an equimolar amount of zinc, manganese, or iron.\nMixes were similar to the calprotectin induction assays with the addition of zinc sulfate, manganese sulfate, or iron chloride. Concentrations of metals were added in excess of 1× and 10× the binding capacity of 40 μg/mL (1.5 μM) calprotectin. In total, 4 μM and 40 μM of zinc and iron were added, and 2 μM and 20 μM of manganese was added."}, "[4]": {"tested_on": "ykg promoter", "experiment": "Zur expression optimization for low basal expression of ykg promoter", "conditions": "zur driven by constitutive promoter on same plasmid", "excerpt": "To increase the dynamic range of the Pykg expression, the high level of basal expression when the operon is not activated by zinc limitation needed to be reduced. It was considered that the basal level of expression was high because the ykg promoter was being expressed from a multicopy plasmid while the Zur repressor was being synthesized from the chromosome, altering their normal stoichiometry. To identify the optimal level of Zur to reduce the basal expression while maintaining the ability to respond to zinc limitation, several constructs were tested in which the zur gene was driven by constitutive promoters of increasing strength on the same plasmid as the ykg promoter (FIG. 2A) . . . . […] Other promoters were either too weak (J23113) to reduce the basal level of promoter expression or were too strong (J23100, J23110) to allow induction of the Pykg upon zinc depletion. Additional studies utilized the J23109 promoter construct, now denoted as pBSI1 (bacterial sensor of inflammation).\nTo reduce the background of Pygk biosensor, zinc binding transcription factor Zur was inserted into pColE-based sensor construct (pColE1-Pykg-sfgfp) under the control of different constitutive expresison promoters. […] The sensitivity and expression strength of new biosensor constructs was analyzed through fluorescence detection and RT-qPCR."}, "[5]": {"tested_on": "E. coli Nissle 1917 (EcN)", "experiment": "Minimum inhibitory concentration of calprotectin on EcN", "conditions": "10^4 EcN cells, overnight, LB media, two-fold dilutions", "method": "Identification of E. coli Nissle promoters responsive to calprotectin. […] Currently, fecal calprotectin levels are used as a non-invasive way of monitoring intestinal inflammation, however compliance with such tests is low due to the need for patients to handle their own feces. Therefore, the development of an ingestible bacterial biosensor that would sense and report intestinal inflammation was contemplated. […] To do this the minimal inhibitory concentration of calprotectin incubated with EcN in vitro was first identified.\n(§1) It was considered that exposing EcN to a sub-inhibitory concentration of calprotectin that was near the MIC would yield the best opportunity to identify physiologically relevant promoters that respond to calprotectin. The minimal inhibitory concentration of calprotectin (250 μg/mL) was first identified using EcN growth in LB media (FIG. 1E). Therefore, EcN were grown into the mid-exponential phase in LB media and then treated cultures with 125 µg/mL of calprotectin for 30 minutes or without calprotectin as a negative control. As an additional control, a mutant version was used of calprotectin that lacks the ability to bind metals, rendering the protein unable to carry out nutritional immunity.\nTo explore biosensor promoters that can respond to calprotectin, the transcriptome of EcN treated with the sub-inhibitory amount of calprotectin was analyzed. […]"}, "[6]": {"tested_on": "ykgMO operon (50S Ribosomal Protein L36/L31 type B)", "experiment": "RNA sequencing of calprotectin-treated EcN: ykgMO operon", "conditions": "125 μg/mL calprotectin 30 min, LB, over untreated cells", "method": "as §1\n(§2) For transcriptome analysis, EcN cells were grown overnight, and then back-diluted 1:100 into 5 mL of LB broth. When cells were grown up to the log phase, the sub-inhibitory amount of calprotectin was added to the cultures at a final concentration of 125 μg/mL. […] RNA was quantified and tested for purity using a Denovix spectrophotometer (Denovix, Wilmington, Delaware). RNA-seq was performed by Applied Biological Materials (ABM) (Richmond, British Columbia, Canada) on an Illumina NextSeq sequencer, at an average of 5 million reads per sample. rRNA depletion and quality check were also performed by ABM. […]"}, "[7]": {"tested_on": "ATP-binding cassette transporter cluster (abt)", "experiment": "RNA sequencing of calprotectin-treated EcN: abt cluster", "conditions": "125 μg/mL calprotectin 30 min, LB, over untreated cells", "method": "as §1, §2"}, "[8]": {"tested_on": "siderophore enterobactin operon (ent)", "experiment": "RNA sequencing of calprotectin-treated EcN: ent operon", "conditions": "125 μg/mL calprotectin 30 min, LB, over untreated cells", "method": "as §1, §2"}, "[9]": {"conditions": "40 μg/mL calprotectin, equimolar metal, M9"}}, "note": "Several values for one entry are separate records, joined by “and”; a condition that tells them apart may be missing. Equal entries are not always repeated. Where two headings read alike, the source gives them in different places.", "data": [{"molecule": "c1ccc(CN(CCN(Cc2ccccn2)Cc2ccccn2)Cc2ccccn2)nc1", "note": "[TPEN, N,N,N′, N′-tetrakis(2-pyridinylmethyl)-1,2-ethanediamine]", "values": [{"measurement": "activation of promoter constructs (sfGFP fluorescence) compared to control", "setting": "[1]", "result": "2-3 fold"}, {"measurement": "gene upregulation by RT-qPCR", "setting": "[2]", "result": "upregulated"}]}, {"molecule": "O=S(=O)([O-])[O-].[Zn+2]", "note": "[Zn, zinc sulfate]", "values": [{"measurement": "repression of BSI0 activation in the presence of calprotectin", "setting": "[3]", "result": "totally repress the activation"}]}, {"molecule": "J23109: constitutive promoter (SEQ ID NO: 5) driving zur; construct denoted pBSI1 (DNA TTTACAGCTAGCTCAGTCCTAGGGACTGTGCTAGC; listed as DNA, chemistry not fully specified)", "values": [{"measurement": "reduction of basal expression from the ykg promoter", "setting": "[4]", "result": 100, "unit": "fold"}]}, {"molecule": "J23114: constitutive promoter (SEQ ID NO: 4) driving zur on the ykg promoter plasmid (DNA TTTATGGCTAGCTCAGTCCTAGGTACAATGCTAGC; listed as DNA, chemistry not fully specified)", "values": [{"measurement": "reduction of basal expression from the ykg promoter", "setting": "[4]", "result": 100, "unit": "fold"}]}, {"molecule": "iron chloride [Fe]", "values": [{"measurement": "repression of BSI0 activation in the presence of calprotectin", "setting": "[3]; [9]", "result": "not"}]}, {"molecule": "manganese sulfate [Mn]", "values": [{"measurement": "repression of BSI0 activation in the presence of calprotectin", "setting": "[3]; [9]", "result": "not"}]}, {"molecule": "calprotectin: Recombinant human calprotectin; neutrophil-source antimicrobial protein that sequesters zinc, manganese and iron (protein, UniProt P05109 1-93; P06702 1-114, looked up) Protein S100-A8: MLTELEKALNSIIDVYHKYSLIKGNFHAVYRDDLKKLLETECPQYIRKKGADVWFKELDINTDGAVNFQEFLILVIKMGVAAHKKSHEESHKE Protein S100-A9: MTCKMSQLERNIETIINTFHQYSVKLGHPDTLNQGEFKELVRKDLQNFLKKENKNEKVIEHIMEDLDTNADKQLSFEEFIMLMARLTWASHEKMHEGDEGPGHHHKPGLGEGTP", "values": [{"measurement": "minimal inhibitory concentration of calprotectin", "setting": "[5]", "result": "256 µg/mL and 250 µg/mL"}, {"measurement": "Fold-Change in Gene Expression, ykgMO", "setting": "[6]", "result": "up to 10.3 fold"}, {"measurement": "Fold-Change in Gene Expression, ykgMO", "setting": "[6]; listed as Calprotectin", "result": "4.20-10.26 fold"}, {"measurement": "Fold-Change in Gene Expression, ABC transporter cluster", "setting": "[7]", "result": "3.80-9.44 fold"}, {"measurement": "Fold-Change in Gene Expression, ent operon", "setting": "[8]", "result": "up to 4.8 fold"}, {"measurement": "Fold-Change in Gene Expression, ent operon", "setting": "[8]; listed as Calprotectin", "result": "4.38-4.78 fold"}]}]}
